Consider 53 compounds from patent US4533665A, “[[Bis(aryl)methylene]-1-piperidinyl]alkyl-pyrimidinones” (Janssen Pharmaceutica, priority 1984, dated 1985).

Counter-ions that a name gives are not always drawn. Bounds are passed on as bounds.

T1 sequence (P14842 whole entry): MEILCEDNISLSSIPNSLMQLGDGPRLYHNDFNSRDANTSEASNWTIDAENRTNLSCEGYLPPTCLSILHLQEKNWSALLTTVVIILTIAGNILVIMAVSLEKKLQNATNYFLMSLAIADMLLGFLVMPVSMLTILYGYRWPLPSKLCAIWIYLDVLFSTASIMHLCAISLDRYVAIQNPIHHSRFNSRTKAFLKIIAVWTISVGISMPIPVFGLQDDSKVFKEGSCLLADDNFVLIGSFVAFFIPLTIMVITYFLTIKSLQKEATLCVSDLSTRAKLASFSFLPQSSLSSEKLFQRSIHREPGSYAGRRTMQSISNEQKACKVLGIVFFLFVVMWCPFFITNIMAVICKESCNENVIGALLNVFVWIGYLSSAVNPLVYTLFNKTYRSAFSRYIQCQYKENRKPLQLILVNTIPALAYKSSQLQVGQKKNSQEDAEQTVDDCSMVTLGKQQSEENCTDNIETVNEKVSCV

This assay addresses T1, S2-receptor (Rattus norvegicus, UniProt P14842).
T1 construct: Caudal arteries from fasted male rats; from tissue; host or cells: rat caudal artery, helical strips
The experiment in a line: antagonistic activity on the effect of serotonin on the caudal artery of the rat (caudal artery test). The note with it: rat caudal artery strips; serotonin 40 ng/ml; 5 minutes after adding the drug; read-out: ED50 (minimal concentration which reduces the amplitude of the serotonin-induced contraction to at least 50% of its normal value) (converted). Here is the method:
ANTAGONISTIC ACTIVITY ON THE EFFECT OF SEROTONIN ON THE CAUDAL ARTERY OF THE RAT
Caudal arteries from fasted male rats (210-235 g) were used in the test. […] Submaximal contractions of the arterial strips were produced by adding single doses of serotonin (40 ng/ml) to the organ bath for 2 minutes with each time an interval of 10 minutes. The amplitude of the contraction was measured before and 5 minutes after adding the drug. After washing out, the agonist was added again three times in order to see whether the contraction was restored and normalized. […] In this connection the ED50 -values are the minimal concentrations of the concerned drugs which reduce the amplitude of the contraction to at least 50% of its normal value.
Take `Cc1nc2sccn2c(=O)c1CCN1CCC(=C(c2ccc(F)cc2)c2cccc(Cl)c2)CC1` [Compound 6]: the IC50 is 1.28 pM. The figure for `Cc1ccc(C(=C2CCN(CCc3c(C)nc4scc(C)n4c3=O)CC2)c2ccc(F)cc2)cc1` [Compound 38] is 0.656 pM; for `Cc1nc2ccccn2c(=O)c1CCN1CCC(=C(c2ccc(F)cc2)c2ccc(F)cc2)CC1` [Compound 2] it is 2.76 pM. As for `Cc1nc2sccn2c(=O)c1CCN1CCC(=C(c2ccc(F)cc2)c2ccc(Cl)cc2)CC1` [Compound 9], the IC50 was below 1.28 pM. Consider `Cc1nc2n(c(=O)c1CCN1CCC(=C(c3ccc(F)cc3)c3cccc(Cl)c3)CC1)CCS2` [Compound 5], for which the IC50 was 0.323 pM.

In the case of `Cc1ccc(C(=C2CCN(CCc3c(C)nc4ccccn4c3=O)CC2)c2ccc(F)cc2)cc1` [Compound 41], the IC50 is 0.684 pM. The figure for `Cc1ccc(C(=C2CCN(CCc3c(C)nc4ccccn4c3=O)CC2)c2ccc(C)cc2)cc1` [Compound 43] is 1.53 pM. Consider `Cc1nc2n(c(=O)c1CCN1CCC(=C(c3ccc(F)cc3)c3ccc(F)cc3)CC1)CCCC2` [Compound 3], for which the IC50 is 1.18 pM. The figure for `Cc1nc2sccn2c(=O)c1CCN1CCC(=C(c2ccc(F)cc2)c2cccc(F)c2)CC1` [Compound 25] is 0.293 pM. The figure for `Cc1nc2scc(C)n2c(=O)c1CCN1CCC(=C(c2ccccc2)c2cccc(C(F)(F)F)c2)CC1` [Compound 85] is below 4.77 pM. Regarding `Cc1nc2sc(C)c(C)n2c(=O)c1CCN1CCC(=C(c2ccc(F)cc2)c2ccc(F)cc2)CC1` [Compound 127], the IC50 is 0.633 pM. The figure for `Cc1nc2scc(C)n2c(=O)c1CCN1CCC(=C(c2ccc(F)cc2)c2ccc(F)cc2)CC1` [Compound 112, 6-[2-[4-[bis(4-fluorophenyl)methylene]-1-piperidinyl]ethyl]-3,7-dimethyl-5H-thiazolo[3,2-a]pyrimidin-5-one] is 0.651 pM; for `Cc1nc2n(c(=O)c1CCN1CCC(=C(c3ccc(F)cc3)c3ccc(Br)cc3)CC1)CCCS2` [Compound 33] it is 5.05 pM; for `Cc1nc2sccn2c(=O)c1CCN1CCC(=C(c2ccc(F)cc2)c2cccc(C(F)(F)F)c2)CC1` [Compound 21] it is 1.19 pM. For `Cc1nc2scc(C)n2c(=O)c1CCN1CCC(=C(c2ccc(F)cc2)c2cccnc2)CC1` [Compound 124], the IC50 was 2.74 pM. The figure for `Cc1cccc(C(=C2CCN(CCc3c(C)nc4n(c3=O)CCCS4)CC2)c2ccc(F)cc2)c1` [Compound 121] is 2.65 pM; for `Cc1nc2n(c(=O)c1CCN1CCC(=C(c3ccc(F)cc3)c3ccc(Br)cc3)CC1)CCCC2` [Compound 35] it is 1.32 pM. In the case of `COc1ccc(C(=C2CCN(CCc3c(C)nc4n(c3=O)CCCC4)CC2)c2ccc(F)cc2)cc1` [Compound 146, 3-[2-[4-[(4-fluorophenyl)(4-methoxyphenyl)methylene]-1-piperidinyl]ethyl]-6,7,8,9-tetrahydro-2-methyl-4H-pyrido[1,2-a]pyrimidin-4-one dihydrochloride], the IC50 was 2.32 pM.

As for `Cc1nc2sccn2c(=O)c1CCN1CCC(=C(c2ccc(F)cc2)c2cccnc2)CC1` [Compound 53], the IC50 is 2.82 pM. Regarding `Cc1ccc(C(=C2CCN(CCc3c(C)nc4n(c3=O)CCCS4)CC2)c2ccc(F)cc2)cc1` [Compound 40], the IC50 was 1.14 pM. Turning to `COC1CN(CCc2c(C)nc3ccccn3c2=O)CCC1=C(c1ccc(F)cc1)c1ccc(F)cc1` (centres unmarked) [Compound 62], the IC50 was 5.58 pM. The figure for `Cc1nc2n(c(=O)c1CCN1CCC(=C(c3ccc(F)cc3)c3cccnc3)CC1)CCCC2` [Compound 54] is 6.11 pM; for `Cc1ccc(C(=C2CCN(CCc3c(C)nc4n(c3=O)CCCC4)CC2)c2ccccc2)cc1` [Compound 71] it is 0.705 pM. The figure for `Cc1nc2n(c(=O)c1CCN1CCC(=C(c3ccc(F)cc3)c3ccc(F)cc3)CC1)CCCS2` [Compound 114] is 1.13 pM; for `Cc1ccc(C(=C2CCN(CCc3c(C)nc4n(c3=O)CCCS4)CC2)c2ccccc2)cc1` [Compound 128] it is 0.678 pM; for `Cc1nc2sccn2c(=O)c1CCN1CCC(=C(c2ccccc2)c2ccccc2)CC1` [Compound 4] it is 0.362 pM. Regarding `Cc1nc2ccccn2c(=O)c1CCN1CCC(=C(c2ccc(F)cc2)c2ccc(Cl)cc2)CC1` [Compound 13], the IC50 was 2.56 pM. The figure for `Cc1nc2n(c(=O)c1CCN1CCC(=C(c3ccccc3)c3ccc(F)cc3)CC1)CCCC2` [Compound 137, 3-[2-[4-[(4-fluorophenyl)phenylmethylene]-1-piperidinyl]ethyl]-6,7,8,9-tetrahydro-2-methyl-4H-pyrido[1,2-a]pyrimidin-4-one dihydrochloride] is 2.45 pM. Take `Cc1ccc(C(=C2CCN(CCc3c(C)nc4n(c3=O)CCCC4)CC2)c2ccc(F)cc2)cc1` [Compound 46]: the IC50 was 2.76 pM. The figure for `COc1ccc(C(=C2CCN(CCc3c(C)nc4n(c3=O)CCCS4)CC2)c2ccc(F)cc2)cc1` [Compound 145, 7-[2-[4-[(4-fluorophenyl)(4-methoxyphenyl)methylene]-1-piperidinyl]ethyl]-3,4-dihydro-8-methyl-2H,6H-pyrimido[2,1-b][1,3]thiazin-6-one dihydrochloride] is 2.25 pM; for `Cc1nc2ccc(N)cn2c(=O)c1CCN1CCC(=C(c2ccc(F)cc2)c2ccc(F)cc2)CC1` [Compound 141, 7-amino-3-[2-[4-[bis(4-fluorophenyl)methylene]-1-piperidinyl]ethyl]-2-methyl-4H-pyrido[1,2-a]-pyrimidin-4-one] it is 1.46 pM. Regarding `Cc1cccc(C(=C2CCN(CCc3c(C)nc4n(c3=O)CCCC4)CC2)c2ccc(F)cc2)c1` [Compound 138, 3-[2-[4-[(4-fluorophenyl)(3-methylphenyl)methylene]-1-piperidinyl]ethyl]-6,7,8,9-tetrahydro-2-methyl-4H-pyrido[1,2-a]pyrimidin-4-one], the IC50 was 2.65 pM. In the case of `Cc1nc2sccn2c(=O)c1CCN1CCC(=C(c2ccccc2)c2ccc(O)cc2)CC1` [Compound 80], the IC50 is 2.84 pM. The figure for `Cc1nc2ccccn2c(=O)c1CCN1CCC(=C(c2ccc(F)cc2)c2cccc(C(F)(F)F)c2)CC1` [Compound 31] is 4.79 pM; for `Cc1nc2n(c(=O)c1CCN1CCC(=C(c3ccccc3)c3ccccc3)CC1)CCCS2` [Compound 104, 7-[2-[4-(diphenylmethylene)-1-piperidinyl]ethyl]-3,4-dihydro-8-methyl-2H,6H-pyrimido[2,1-b][1,3]-thiazin-6-one] it is 0.699 pM; for `Cc1nc2ccccn2c(=O)c1CCN1CCC(=C(c2ccc(F)cc2)c2ccc(Br)cc2)CC1` [Compound 45] it is 2.44 pM. As to `Cc1cccc(C(=C2CCN(CCc3c(C)nc4sccn4c3=O)CC2)c2ccc(F)cc2)c1` [Compound 14], the IC50 was 1.33 pM. The figure for `Cc1nc2sccn2c(=O)c1CCN1CCC(=C(c2ccccc2)c2cccc(C(F)(F)F)c2)CC1` [Compound 89] is below 4.91 pM; for `Cc1nc2n(c(=O)c1CCN1CCC(=C(c3ccc(F)cc3)c3cccc(C(F)(F)F)c3)CC1)CCCC2` [Compound 140, 3-[2-[4-[(4-fluorophenyl)[3-(trifluoromethyl)phenyl]methylene]-1-piperidinyl]ethyl]-6,7,8,9-tetrahydro-2-methyl-4H-pyrido[1,2-a]pyrimidin-4-one dihydrochloride] it is 2.09 pM; for `Cc1cccc(C(=C2CCN(CCc3c(C)nc4ccccn4c3=O)CC2)c2ccc(F)cc2)c1` [Compound 15] it is 1.35 pM. The figure for `Cc1ccc2nc(C)c(CCN3CCC(=C(c4ccc(F)cc4)c4ccc(F)cc4)CC3)c(=O)n2c1` [Compound 50] is 1.46 pM; for `Cc1cccc(C(=C2CCN(CCc3c(C)nc4n(c3=O)CCCS4)CC2)c2ccccc2)c1` [Compound 70] it is 1.19 pM; for `Cc1nc2scc(C)n2c(=O)c1CCN1CCC(=C(c2ccccc2)c2ccc(O)cc2)CC1` [Compound 72] it is 1.51 pM.

Take `Cc1nc2n(c(=O)c1CCN1CCC(=C(c3ccc(F)cc3)c3cccc(F)c3)CC1)CCCC2` [Compound 30]: the IC50 is 1.18 pM.

For the compound `Cc1ccc(C(=C2CCN(CCc3c(C)nc4sccn4c3=O)CC2)c2ccc(C)cc2)cc1` [Compound 26], the IC50 is 1.19 pM. The figure for `Cc1nc2ccccn2c(=O)c1CCN1CCC(=C(c2ccccc2)c2ccccc2)CC1` [Compound 18] is below 1.45 pM; for `Cc1nc2scc(C)n2c(=O)c1CCN1CCC(=C(c2ccc(F)cc2)c2cccc(Cl)c2)CC1` [Compound 7] it is 1.24 pM. Consider `Cc1ccc(C(=C2CCN(CCc3c(C)nc4n(c3=O)CCCS4)CC2)c2ccc(C)cc2)cc1` [Compound 108, 7-[2-[4-[bis(4-methylphenyl)methylene]-1-piperidinyl]ethyl]-3,4-dihydro-8-methyl-2H,6H-pyrimido[2,1-b][1,3]thiazin-6-one], for which the IC50 was 2.68 pM. The figure for `Cc1nc2ccccn2c(=O)c1CCN1CCC(=C(c2ccc(F)cc2)c2cccnc2)CC1` [Compound 57] is 2.86 pM; for `Cc1ccccc1C(=C1CCN(CCc2c(C)nc3n(c2=O)CCCC3)CC1)c1ccccc1` [Compound 92] it is 0.705 pM; for `Cc1ccc(C(=C2CCN(CCc3c(C)nc4n(c3=O)CCCC4)CC2)c2ccc(F)cc2)cc1` [Compound 42] it is 4.66 pM. The figure for `Cc1cccc(C(=C2CCN(CCc3c(C)nc4scc(C)n4c3=O)CC2)c2ccccc2)c1` [Compound 68] is 0.681 pM; for `Cc1nc2ccccn2c(=O)c1CCN1CCC(=C(c2ccc(F)cc2)c2ccc(F)cc2)C(O)C1` (centres unmarked) [Compound 61] it is 4.51 pM.
